In US11524956B2, “Alkyne substituted quinazoline compound and methods of use” (Newgen Therapeutics, Inc., priority 2011, dated 2022):
Read-outs that look alike come from different tables or passages of the source.

Assays:
H1975 xenograft = test: In vivo efficacy in NCI-H1975 xenograft mouse model; parameters: species or system Balb/c nude mice; settings: KU113 10 and 20 mg/kg po qd; afatinib 20 mg/kg; erlotinib 100 mg/kg
Description: H1975 cells were purchased from ATCC were cultured in RPMI1640±10% FBS-1% P/S antibiotics. Balb/c nude mice, female, 6-8 week, 18+2 g were purchased from. Shanghai Laboratory Animal Co. Ltd. The purchased mice were adapted to the environment for 7 days before use, and were housed at 22-25° C. with humidity 40-70%, and light cycle with fluorescent light for 12-hour light (8:00-20:00) 12-hour dark.
Formulation: Erlotinib, afatinib (BIBW2992), and KU113 were dissolved in 2% DMA and 98% (40% HP-β-CD deionized water).
The cancer cells (H1975) were amplified and implanted into the nude mice (right flank) with 5.0×10^6 cells in PBS and 1:1 with matrigel in a total volume of 0.1 ml/mouse. […]
The mice were monitored twice daily for appearance and behavior, and for signs of morbidity and/or mortality. The tumor volume was measured twice a week, and the body weight was measured immediately before measuring the tumor volume throughout the whole study. […]
Tumor sizes were measured twice weekly in two dimensions using a caliper, and the volume was expressed in mm^3 using the formula: V=½×a×b^2 where a and b are the long and short diameters of the tumor, respectively. […]

BT474 cells = test: Cell proliferation inhibition assay for BT474 (CCK-8); type: cell-based; settings: Homo sapiens, BT-474; 72h
Description: Human breast cancer BT474 cells was cultured in low glucose DMEM (Life Technologies 12320-032) containing 10% fetal bovine serum (FBS) at 37° C. in a humidified 10% CO2, 90% air incubator. Cells were harvested using trypsin EDTA, counted using a haemocytometer, and plated 10000 cell/well in a 96-well clear tissue culture plate. The cells were incubated for 24 h at 37° C. to allow adherence. A serials of concentrations of each compound (ranging from 30 um to 0.16 nM, 5-fold dilution) in 96-well plate, and incubated for 72h. Each concentration was tested in triplicate wells. During the cell proliferation assay, BT474 cells were cultured in low-glucose DMEM containing 5% FBS, 50 ug/ml gentamicin, and 0.3% v/v DMSO. The culture medium was removed via aspiration, and the cell viability was detected by using CCK-8 cell proliferation kit. The IC50 value measured for each compound in Examples 1 to 7 is <100 nM.

NCI-H1975 cells = test: Anti-proliferation assay of NCI-H1975 cells (CCK-8); type: cell-based; settings: Homo sapiens, NCI-H1975, 72 h, 3 days
Description: The anti-proliferative assays were performed in triplicates. 3000 cell/well of N1975 cells were seeded in 96-well plate (medium: RPMI 1640, 5% FBS. 2 mM L-Glutamine). After 24 h, removal the medium in the plate was followed by the addition of compound of serial dilution in medium to the wells. After 3 days, the cells were treated with CCK-8 kit and incubated for additional 4 hours at 37° C. The plate was read at 450 nm. The log of the fractional growth inhibition was plotted against the log of the drug concentration, and the IC50 values were interpolated from the resulting linear regression curve fit. The IC50 value measured for Compound NT113 is <1000 nM.

Rat brain concentration = type: in vivo, Sprague Dawley rats; settings: Sprague Dawley, po, P.O. 5 mg/Kg; for concentration at 2 h / concentration at 4 h / concentration at 24 h: brain, 5 mg/kg
Description: Brain concentration: Three rats are for brain collection (2h) only. Three rats are for brain collection (4 h) only. The rest 3 rats are for plasma (9 time points) and brain collection (24h).
Brain Collection and Tissue Processing: Post blood collection, the brain was first perfused intracardially with ˜150 mL of ice-cold, 0.1 M Phosphate Buffered Saline (PBS) at pH7.4. Then, the dura was removed before weighing the brain. The brain was then dissected into smaller pieces, rinsed twice with ˜10 mL PBS, and then flash frozen on dry ice, and stored at −80° C. before analysis.
Before tissue processing, rat brains were thawed. For the preparation of analytical standards, purchased frozen rat brains (from Pelfreez) were similarly thawed, dissected, rinsed with PBS, and 100 μL of Compound A stock solution (at 500 ng/mL and 1, 2 5, 10, and 50 μg/mL in acetonitrile) was spiked directly into the tissue. Both Compound A dosed and spiked brains then underwent the same processing procedures described below.
Briefly, 2 mL of water was added to each brain before homogenization. Homogenize the brain in 2 to 3 sessions, each approximately 15 sec. The mechanical probe of the homogenizer was cleansed in water, 70% ethanol, and ethyl acetate after each sample. The resulting brain homogenates were then extracted with ethyl acetate three times (14 mL total), and centrifuged to separate the aqueous and organic phases after each extraction. Per brain, pooled organic phase were evaporated under a stream of nitrogen at 40° C. and the residues were reconstituted with 4 mL of mobile phase B. Compound A spiked brain samples in the 4 mL solutions had final concentrations of 12.5, 25, 50, 125, 250, 1250 ng/mL. The reconstituted samples were incubated for ˜15 minutes at 60° C. and, vortexed for 10 minutes to fully dissolve the analytes. The samples were centrifuged, and then further diluted with Mobile phase B (shown below) before LC/MS/MS analysis. Dilute 20 μL of reconstituted samples with 1.5 mL mobile phase B. Transfer and inject supernatant to […] system for analysis.

CN(C)C/C=C/C(=O)Nc1cc2c(Nc3ccc(F)c(Cl)c3)ncnc2cc1C#C[C@@H]1[C@H]2COC[C@@H]12 [Example 4, (E)-N-(4-(3-chloro-4-fluorophenylamino)-7-(2-((1R,5S,6s)-3-oxa-bicyclo[3.1.0]hexan-6-yl)ethynyl)quinazolin-6-yl)-4-(dimethylamino)but-2-enamide]
anticancer effect on H1975 xenograft versus comparators (H1975 xenograft): significantly more effective than erlotinib; and comparable with afatinib | IC50 (BT474 cells): < 100 nM | IC50 (NCI-H1975 cells; read-out: Cell Proliferation Inhibition IC50 (nM) NCI-H1975): 100 to 1000 nM | IC50 (NCI-H1975 cells; read-out: IC50 NCI-H1975 anti-proliferation): < 1000 nM | concentration at 2 h (Rat brain concentration; 2 hr, read-out: Brain Conc. (ng/g) Mean): 156 ng/g | concentration at 2 h (Rat brain concentration; 2 hr, read-out: Brain Conc. (ng/g) No. 1): 118 ng/g | concentration at 2 h (Rat brain concentration; 2 hr, read-out: Brain Conc. (ng/g) No. 2): 156 ng/g | concentration at 2 h (Rat brain concentration; 2 hr, read-out: Brain Conc. (ng/g) No. 3): 194 ng/g | concentration at 4 h (Rat brain concentration; 4 hr, read-out: Brain Conc. (ng/g) Mean): 173 ng/g | concentration at 4 h (Rat brain concentration; 4 hr, read-out: Brain Conc. (ng/g) No. 1): 127 ng/g | concentration at 4 h (Rat brain concentration; 4 hr, read-out: Brain Conc. (ng/g) No. 2): 209 ng/g | concentration at 4 h (Rat brain concentration; 4 hr, read-out: Brain Conc. (ng/g) No. 3): 185 ng/g | concentration at 24 h (Rat brain concentration; 24 hr, read-out: Brain Conc. (ng/g) Mean): 17.6 ng/g | concentration at 24 h (Rat brain concentration; 24 hr, read-out: Brain Conc. (ng/g) No. 1): 26 ng/g | concentration at 24 h (Rat brain concentration; 24 hr, read-out: Brain Conc. (ng/g) No. 2): 11 ng/g | concentration at 24 h (Rat brain concentration; 24 hr, read-out: Brain Conc. (ng/g) No. 3): 15.8 ng/g | Kp at 2 h (Rat brain concentration; brain/plasma, 2 hr, read-out: B/P ratio): 4 | Kp at 4 h (Rat brain concentration; brain/plasma, 4 hr, read-out: B/P ratio): 4.4 | Kp at 24 h (Rat brain concentration; brain/plasma, 24 hr, read-out: B/P ratio): 8.7
